For one series, the system named is WT virus (NL4-3). Put plainly: microbe, parasite or virus in culture. It is filed as cell-based, HIV-1. The following applies: for EC50: read-out: EC50; for cytotoxicity and anti-viral effect (summary graph): Figures 10-12, result in words. The protocol: Evaluation of these compounds for the inhibition of HIV-1 was determined as the fifty percent cell culture inhibitory concentration (CIC50) in CEMSS cell culture with WT virus (NL4-3).
(§1) In this Example, the antiviral and cellular toxicity of NNRTIs was investigated, using the cytopathic cell killing assay described by Yang (Yang et al., "Characteristics of a Group of Non-nucleoside Reverse Transcriptase Inhibitors with Structural Diversity and Potent Anti-Human Immunodeficiency Virus Activity," Leukemia 9:S75-S85 [1995]). Briefly, in this method cells (e.g., the CEM-SS cell line, available from the NIAID AIDS Research and Reference Program [ARRRP]) were seeded at a density of 5 x 10^3 cells/well, into the wells of a 96-well microtiter plate. The cells were then infected with HIV virus (either mutant or WT), at a multiplicity of infection (MOI) previously determined to provide complete cell killing by 6 days of culture post-infection (e.g., MOI of 0.01-0.05). Each of the HIV isolates was pre-titered to induce equivalent levels of infection based on cell killing or virus production, prior to their use in these assays. A range of test compound concentrations was added to the wells in triplicate (e.g., serial half-log dilutions) to evaluate inhibition of HIV infection. Controls for each assay included drug controls (drug colorimetric control wells), drug cytotoxicity control wells (cells with drug), virus control wells (cells with virus), and cell viability controls (cells only). Positive control drugs (e.g., AZT and ddC) were also run in parallel.
(§2) After six days of incubation at 37°C, cell viability was determined spectrophotometrically at 450 nm for each well, using the metabolic reduction of XTT to a soluble colored formazan. (See, Gartner and Popovic, "Virus Isolation and Production, in Aldovini and Walker (eds.), Techniques in HIV Research, Stockton Press, NY, pp. […] [1991]; and Nara and Fischinger, "Quantitative Infectivity Assay for HIV-1 and HIV-2," Nature 332:469-470 [1988]).
(§3) The in vitro therapeutic index (TI50) was defined as the fold-difference between the EC50 and IC50. The results for the various compounds are included in Figures 8 and 19.

The next series concerns the target T1, HIV-1 WT RT (Human immunodeficiency virus type 1 group M subtype B, UniProt P03366).
T1 construct: purified RT protein (0.015 mg/mL) was incubated in a 100 µL reaction mixture
Put plainly: biochemical. As to conditions: for inhibition at 10 µM: 10 µM drug concentration; for IC50: read-out: IC50.

Another series has as its system NL4-3 (WT). Put plainly: Cytopathic cell killing assay, cross-resistance profile, infected MT-4 cells. It is filed as cell-based, HIV-1.
Excerpt: (§4) The various HIV isolates tested in the Figures are those corresponding to wild-type virus (NL4-3) and the other strains listed by their RT mutations. The three 4xAZT isolates included in the Figures represent AZT drug-resistant variants. For example, the 4xAZT/L100I isolate has five mutations: four mutations confer increased resistance to AZT, and the other mutation is located within the NNRTI binding pocket. TZB and nevir. (nevirapine) are two well-known NNRTIs, included in this experiment for comparison purposes. […]
as §1, §2, §3

A further series deals with HIV-1 variant K101E. The series is described as above. It is filed as cell-based. As to conditions: Human immunodeficiency virus 1, MT4, Table 9; isolate KIOIE.
Excerpt: as §4, §1, §2, §3

Another series relates to HIV-1 variant K103N. Described as above. It is filed as cell-based. The following applies: isolate K103N.
Excerpt: as §4, §1, §2, §3

In another series the test system is HIV-1 variant L100I. The series is described as above. It is filed as cell-based. The following applies: isolate L1001.
Excerpt: as §4, §1, §2, §3

Another series deals with HIV-1 variant V108I. Described as above. It is filed as cell-based. The following applies: Human immunodeficiency virus 1, MT4, Table 9; isolate V1081.
Excerpt: as §4, §1, §2, §3

The next series relates to HIV-1 variant Y181C. The description is as above. It is filed as cell-based. The following applies: isolate Y181C.
Excerpt: as §4, §1, §2, §3

Setting [1] is: Table 11, CEMSS/NL4-3, NRVC = reduction in viral CPE not seen (footnote).
Where [2] appears, read: Table 3, WT RT, read-out: %inhibn (10 µM).
[3] abbreviates: Table 2, WT RT, read-out: %inhibn (10µM).
Setting [4] is: Human immunodeficiency virus 1, MT4, Table 9.
The mark [5] stands for this setting: Table 1, WT RT, read-out: %inhibn (10µM).
Setting [6] is: Table 10 (values in µM), read-out: EC50.

Where two headings read alike, the source gives them in different places. A value given as a limit tells only on which side of the number the result lay.

As for `CC(=O)N(C)Cc1cccc2c1nc(-c1c(F)cccc1F)n2Cc1c(F)cccc1F` [compound 73, 1-(2,6-Difluorobenzyl)-2-(2,6-difluorophenyl)-4-(N-acetyl-N-methyl)-aminomethylbenzimidazole], the concentration giving a half-maximal response (EC50) (in general, the concentration that produces a half-maximal response) with WT virus (NL4-3) (setting [1]) was found to be 580 nM. On the same count and under the same terms, the same measure for “1-(2,6-Difluorobenzyl)-2-(2,6-difluorophenyl)-4-hydroxyl-benzimidazole [compound 52]”: 630 nM. On to `Fc1cccc(F)c1COCc1nc2ccccc2n1Cc1c(F)cccc1F` [compound 32, 1-(2,6-difluorobenzyl)-2-(2,6-difluorobenzyloxymethyl)benzimidazole], for which, at HIV-1 WT RT (setting [2]), the inhibition at 10 µM worked out at 7%.

In the case of “1-(2,6-Difluorobenzyl)-2-(2,6-difluorophenyl)-4-hydroxymethylbenzimidazole [compound 67]”, the EC50 in the series with WT virus (NL4-3) (setting [1]) came out at 23 nM. As to `Cc1cccc2c1nc(C(C)C)n2Cc1c(F)cccc1F` [compound 34, 1-(2,6-difluorobenzyl)-2-isopropyl-4-methylbenzimidazole], on HIV-1 WT RT (setting [2]), the inhibition at 10 µM amounted to 53%. Moreover, the “cytotoxicity and anti-viral effect (summary graph)” value in the series on WT virus (NL4-3) was “effective therapeutic dose”. As to `Cc1cccc2c1nc(-c1c(F)cccc1F)n2Cc1c(Cl)cccc1Cl` [compound 30, 1-(2,6-dichlorobenzyl)-2-(2,6-difluorophenyl)-4-methylbenzimidazole], the inhibition at 10 µM at HIV-1 WT RT (setting [3]) is 58%. For `CC(C)=CCn1c(-c2c(F)cccc2F)nc2c(C)cccc21` [(X= CH3) R = prenyl, 1-(3,3-dimethylallyl)-2-(2,6-difluorophenyl)-4-methylbenzimidazole], the EC50 in the series on NL4-3 (WT) (Human immunodeficiency virus 1, NL43, MT4, Table 9, isolate NL4.3) is 1.3 µM; in the series with HIV-1 variant K101E, over 20000 nM; in the series with HIV-1 variant K103N (setting [4]) it was over 20 µM; in the series on HIV-1 variant L100I (setting [4]) it was 0.3 µM; with HIV-1 variant V108I, over 20000 nM; in the series on HIV-1 variant Y181C (setting [4]), over 20 µM. Turning to `Cc1cccc2c1nc(-c1cccc3ccccc13)n2Cc1c(F)cccc1F` [compound 37, 1-(2,6-difluorobenzyl)-2-(1-naphthyl)-4-methylbenzimidazole], on HIV-1 WT RT (setting [5]), the inhibition at 10 µM was 2%.

For “1-(2,6-Difluorobenzyl)-2-(2,6-difluorophenyl)-benzimidazole-4-carbaldehyde [compound 68]”, the EC50 in the series with WT virus (NL4-3) (setting [1]) came out at 120 nM.

With `Cc1cccc2c1nc(-c1c(F)cccc1F)n2Cc1ccccc1` [compound 29, 1-benzyl-2-(2,6-difluorophenyl)-4-methylbenzimidazole], the inhibition at 10 µM at HIV-1 WT RT (setting [3]) is 87%. On to `Cc1ccccc1-c1nc2ccccc2n1Cc1c(F)cccc1F` [compound 36, 1-(2,6-difluorobenzyl)-2-(2-methylphenyl)benzimidazole], for which the inhibition at 10 µM at HIV-1 WT RT (setting [5]) came to 71%.

Consider `Cc1cccc2c1nc(-c1ccc(C#N)cc1)n2Cc1c(F)cccc1F` [compound 4007], for which, at HIV-1 WT RT (setting [5]), the inhibition at 10 µM is 26%. For the compound “1-(2,6-difluorobenzyl)-2-(2,6-difluorophenyl)benzimidazol-4-yl-methylamine [compound 71]”, the concentration for a half-maximal effect (EC50) with WT virus (NL4-3) (setting [1]) came out at 37 nM. As for `CN(C)c1cccc2c1nc(-c1c(F)cccc1F)n2Cc1c(F)cccc1F` [compound 59, 1-(2,6-difluorobenzyl)-2-(2,6-difluorophenyl)-4-N,N dimethylaminobenzimidazole], the IC50 (as a rule, the concentration at which inhibition is half-maximal) on HIV-1 WT RT (Table 7, HIV-1 WT RT) came out at 40000 nM; at HIV-1 WT RT (Table 11, WT RT) it was 40000 nM. Moreover, on HIV-1 WT RT (Table 7, WT HIV-1 RT, 1 µM drug), the “%inhibn (1µM)” value was 77%. In addition, the EC50 in the series on WT virus (NL4-3) (Table 7, concentration reducing cell killing or virus production by 50%, HIV-1 WT) was 2370 nM; in the series with WT virus (NL4-3) (setting [1]), 2370 nM; in the series on NL4-3 (WT) (Table 10 (values in µM), isolate NL4-3 (WT), read-out: EC50), 2.88 µM; in the series on HIV-1 variant K103N (setting [6]), over 100 µM; with HIV-1 variant L100I (setting [6]), 31.8 µM; in the series with HIV-1 variant Y181C (setting [6]), over 100 µM. For “1-(2,6-difluorobenzyl)-2-(2,6-difluorophenyl)-4-cyanobenzimidazole [compound 60]”, in the series on WT virus (NL4-3) (setting [1]), the EC50 came out at 430 nM. Regarding “1-(2,6-Difluorobenzyl)-2-(2,6-difluorophenyl)benzimidazole-4-carboxylate [compound 64]”, the “EC50 (µM)” value in the series with WT virus (NL4-3) (setting [1]) is given as “NRVC”. For the compound `Fc1cccc(F)c1-c1nc2ccccc2n1Cc1ccccc1` [compound 28, 1-benzyl-2-(2,6-difluorophenyl)benzimidazole], the inhibition at 10 µM at HIV-1 WT RT (setting [3]) was 71%. In the case of `CN(C)C(=O)c1cccc2c1nc(-c1c(F)cccc1F)n2Cc1c(F)cccc1F` [compound 63, 1-(2,6-difluorobenzyl)-2-(2,6-difluorophenyl)benzimidazole-4-carboxylic acid dimethylamide], the “EC50 (µM)” value in the series on WT virus (NL4-3) (setting [1]) was “NRVC”. With “1-(2,6-difluorobenzyl)-2-(2,6-difluorophenyl)-4-chloromethylbenzimidazole [compound 69]”, the 50% effective concentration (EC50) with WT virus (NL4-3) (setting [1]) was 180 nM. On the same count and under the same terms, the result for `CC(C)(O)c1cccc2c1nc(-c1c(F)cccc1F)n2Cc1c(F)cccc1F` [compound 65, 1-(2,6-Difluorobenzyl)-2-(2,6-difluorophenyl)-4-benzimidazoyl-2-propanol] reads 634000 nM. For `Cc1nc2ccccc2n1Cc1c(F)cccc1F` [compound 35, 1-(2,6-difluorobenzyl)-2-methylbenzimidazole], the inhibition at 10 µM on HIV-1 WT RT (setting [2]) stood at 22%. As to “1-(2,6-difluorobenzyl)-2-(2,6-difluorophenyl)-4-acetoxymethylbenzimidazole [compound 51]”, the EC50 in the series with WT virus (NL4-3) (setting [1]) came out at 59 nM. As to `Fc1cccc(F)c1Cn1c(-c2c(F)cccc2F)nc2cc(Br)ccc21` [compound 38, 1-(2,6-Difluorobenzyl)-2-(2,6-difluorophenyl)-5-bromobenzimidazole], in the series on WT virus (NL4-3), the “cytotoxicity and anti-viral effect (summary graph)” value is “inactive”. On to `Cc1cccc2c1nc(-c1c(F)cccc1F)n2S(=O)(=O)c1ccccc1` [compound 46], for which the inhibition at 10 µM at HIV-1 WT RT (setting [3]) was 39%. As for `N=C(NO)c1cccc2c1nc(-c1c(F)cccc1F)n2Cc1c(F)cccc1F` [compound 61, N-hydroxy 1-(2,6-difluorobenzyl)-2-(2,6-difluorophenyl)benzimidazole-4-carboxamidine], the EC50 in the series with WT virus (NL4-3) (Human immunodeficiency virus 1, NL43, CEM-SS, Table 11, CEMSS/NL4-3, NRVC = reduction in viral CPE not seen (footnote)) is 190 nM. With “1-(2,6-Difluorobenzyl)-2-(2,6-difluorophenyl)-4-isopropenylbenzimidazole [compound 66]”, the EC50 in the series with WT virus (NL4-3) (setting [1]) stood at 1440 nM.

On to `O=S(=O)(c1ccccc1)n1c(-c2c(F)cccc2F)nc2ccccc21` [compound 45], for which the inhibition at 10 µM on HIV-1 WT RT (setting [3]) is 52%. In the case of “1-(2,6-difluorobenzyl)-2-(2,6-difluorophenyl)benzimidazole-4-carboxylic acid amide [compound 62]”, the 50% effective concentration (EC50) with WT virus (NL4-3) (setting [1]) turned out to be 4900 nM. In the case of `CC(=O)NCc1cccc2c1nc(-c1c(F)cccc1F)n2Cc1c(F)cccc1F` [compound 72], in the series with WT virus (NL4-3) (setting [1]), the “EC50 (µM)” value was “NRVC”.
